Source: article PMC3350394, “Kinetic analysis and test-retest variability of the radioligand [^11C](R)-PK11195 binding to TSPO in the human brain - a PET study in control subjects” (EJNMMI Research, 2012)
Where “and” joins values, the source holds several entries; their conditions need not be identical. Equal values may be shown once.

Legend:
[1] = test system: ABCC1; set-up: method as in PMID 19948230; details: cited from earlier work
[2] = test system: ABCG2; set-up: method as in PMID 19948230; details: cited from earlier work
[3] = test system: TSPO; set-up: method as in PMID 22008728; details: TSPO SNP Ala147Thr; cited from earlier work
[4] = Plasma metabolite analysis using HPLC; type: in vivo, human
Excerpt: The method for the determination of the fraction of radioactivity corresponding to unchanged [^11C](R)-PK11195 and labelled metabolites during the time of a PET measurement was a modification of a high-performance liquid chromatography (HPLC) method developed for other PET radioligands. […] The HPLC system used consisted of a Merck-Hitachi D-7000 interface module, a Merck-Hitachi L-7100 pump and a Rheodyne injector (7125 with a 5.0-mL loop) (VWR International, Stockholm, Sweden) equipped with a Waters/-Bondapack-C18 column (300 mm × 7.8 mm, 10-μm particle size; Waters, Milford, MA, USA) and a Merck-Hitachi L-7400 absorbance detector (254 nm) in series with a Packard Radiomatic 150TR radiometric detector (Packard BioScience, Meriden, CT, USA) equipped with a PET flow cell (600-μL cell). The HPLC methods used were acetonitrile (A) and phosphoric acid (0.01 M) (B) as mobile phase at 6.0 mL/min. […] The radioactive peak having a retention time corresponding to [^11C](R)-PK11195 was integrated, and its area was expressed as a percentage of the sum of the areas of all detected radioactive peaks.

[5] = test system: TSPO; set-up: method as in PMID 1782994; details: grey matter; baboons; indirect quantitative approach; cited from earlier work
[6] = target: T1, TSPO (Homo sapiens, UniProt P30536); assay: PET, modified 2TCM with shared K1/k2; type: in vivo; set-up: from tissue; host or cells: living human brain (in vivo PET in six control subjects); details: first PET measurement
Description: In addition, data were analysed using a modified 2TCM model which fitted parameters K1/k2, k2, k3 and k4 of the model to several TACs simultaneously in a way that the parameter K1/k2 was shared between regions. First, all ROIs primarily consisting of the grey matter, including the ROI of the typical GM uptake, were fitted in this way then followed by a fit involving white matter regions and, again, the ROI of the typical GM uptake. The ROI of the typical GM uptake was used in the second fitting session to allow for a coupling of K1/k2 between that region and white matter ROIs. However, the parameters obtained for the typical GM ROI in the first session were retained for final analysis.

[7] = test system: p-glycoprotein-ABCB1; set-up: method as in PMID 19948230; details: cited from earlier work
[8] = Radioligand brain exposure (PET); type: in vivo, human
Description: To calculate the percentage of [^11C](R)-PK11195 injected that was present in the brain at the time of maximal radioactivity, the radioactivity concentration in the ROI for the whole brain was multiplied by the estimated average brain volume (1,250 mL), divided by the radioactivity injected and multiplied by 100 to obtain the percentage of injected radioactivity.
Average radioactivity for the ROI was calculated by pooling the data from the series of brain sections. The radioactivity concentration for each sequential time frame was corrected for the physical decay of carbon-11 and used to obtain the regional time-radioactivity curves (TACs; in kiloBecquerels per cubic centimetre).

[9] = target: T1, TSPO; assay: PET, linear graphical analysis (Logan) distribution volume; type: in vivo; set-up: from tissue; host or cells: living human brain (in vivo PET in six control subjects); details: for Error % mean(SD) / Error range (%): VT Logan test-retest; for VT Logan: mean(SD)
Description: The [^11C](R)-PK11195 distribution volume was also quantified using a linear graphical analysis for reversible ligand binding. The regional distribution volumes were determined from the slope of the linear plots obtained from 8 to 60 min after intravenous (i.v.) injection using the radioactivity of unchanged [^11C](R)-PK11195 in arterial plasma as an input function.

[10] = by the end of PET measurement time
[11] = cortical grey matter, individual subjects 1-6
[12] = cortical grey matter, mean of 6 subjects
[13] = white matter, individual subjects 1-6
[14] = white matter, mean of 6 subjects
[15] = at peak, approximately 1 min after i.v. injection, n = 6

T1 sequence (P30536 whole entry): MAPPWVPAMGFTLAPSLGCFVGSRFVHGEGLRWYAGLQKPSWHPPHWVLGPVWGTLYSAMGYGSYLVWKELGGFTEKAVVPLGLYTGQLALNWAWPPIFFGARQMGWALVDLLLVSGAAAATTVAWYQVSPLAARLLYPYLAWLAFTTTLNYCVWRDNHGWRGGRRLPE

CC[C@@H](C)N([11CH3])C(=O)c1cc2ccccc2c(-c2ccccc2Cl)n1 [[^11C](R)-PK11195]
substrate for ABC transporter [1]: not a substrate | substrate for ABC transporter [2]: not a substrate | sensitivity to TSPO genotype [3]: not sensitive to TSPO genotype | polarity of radioactive metabolites in plasma ([4]; HPLC): more polar than the parent compound | unchanged fraction in plasma [4, 10]: 70 ± 1.5% | unchanged fraction in plasma, range [4, 10]: 60% to 77 | metabolism ([4]; human plasma): not extensive | fraction of non-specifically bound radioligand [5]: about 60% | k2 ([6]; cortical grey matter): 0.228 min⁻¹ | k3 ([6]; cortical grey matter): 0.053 min⁻¹ | K1 [6, 11]: 0.050 mL/cc/min and 0.092 mL/cc/min and 0.070 mL/cc/min and 0.089 mL/cc/min and 0.046 mL/cc/min and 0.080 mL/cc/min | k2 [6, 11]: 0.180 min⁻¹ and 0.236 min⁻¹ and 0.228 min⁻¹ and 0.307 min⁻¹ and 0.185 min⁻¹ and 0.235 min⁻¹ | k3 [6, 11]: 0.021 min⁻¹ and 0.055 min⁻¹ and 0.046 min⁻¹ and 0.124 min⁻¹ and 0.035 min⁻¹ and 0.036 min⁻¹ | k4 [6, 11]: 0.014 min⁻¹ and 0.054 min⁻¹ and 0.025 min⁻¹ and 0.061 min⁻¹ and 0.026 min⁻¹ and 0.020 min⁻¹ | K1 [6, 12]: 0.071 mL/cc/min | k4 [6, 12]: 0.033 min⁻¹ | k2 ([6]; white matter): 0.159 min⁻¹ | k3 ([6]; white matter): 0.036 min⁻¹ | K1 [6, 13]: 0.067 mL/cc/min and 0.056 mL/cc/min and 0.062 mL/cc/min and 0.032 mL/cc/min and 0.061 mL/cc/min and 0.036 mL/cc/min | k2 [6, 13]: 0.169 min⁻¹ and 0.180 min⁻¹ and 0.159 min⁻¹ and 0.129 min⁻¹ and 0.182 min⁻¹ and 0.138 min⁻¹ | k3 [6, 13]: 0.040 min⁻¹ and 0.045 min⁻¹ and 0.046 min⁻¹ and 0.026 min⁻¹ and 0.033 min⁻¹ and 0.024 min⁻¹ | k4 [6, 13]: 0.033 min⁻¹ and 0.021 min⁻¹ and 0.027 min⁻¹ and 0.013 min⁻¹ and 0.012 min⁻¹ | K1 [6, 14]: 0.052 mL/cc/min | k4 [6, 14]: 0.020 min⁻¹ | substrate for ABC transporter [7]: not a substrate | radioactivity injected (ID%) present in the brain [8, 15]: about 2.5% | radioactivity injected (ID%) present in the brain, range [8, 15]: 1.9% to 3.2 | time of peak of total brain radioactivity after injection ([8]; intravenous injection): approximately 1 min | mean ID% in the brain ([8]; measurement time from 20 to 60 min): 1.5% to 1.3 | Error % mean(SD) ([9]; brainstem): -8(12) % | Error range (%) ([9]; brainstem): -24 to 12% | VT Logan ([9]; brainstem, retest): 0.67(0.19) | VT Logan ([9]; brainstem, test): 0.74(0.21) | Error % mean(SD) ([9]; caudate): -5(23) % | Error range (%) ([9]; caudate): -37 to 25% | VT Logan ([9]; caudate, retest): 0.59(0.19) | VT Logan ([9]; caudate, test): 0.64(0.16) | Error % mean(SD) ([9]; cerebellum): -4(18) % | Error range (%) ([9]; cerebellum): -29 to 20% | VT Logan ([9]; cerebellum, retest): 0.68(0.18) | VT Logan ([9]; cerebellum, test): 0.72(0.18) | Error % mean(SD) ([9]; grey matter): -4(16) % | Error range (%) ([9]; grey matter): -28 to 17% | VT Logan ([9]; grey matter, retest): 0.65(0.18) | VT Logan ([9]; grey matter, test): 0.69(0.17) | Error % mean(SD) ([9]; putamen): 3(25) % | Error range (%) ([9]; putamen): -25 to 42% | VT Logan ([9]; putamen, retest): 0.73(0.26) | VT Logan ([9]; putamen, test): 0.70(0.15) | Error % mean(SD) ([9]; thalamus): -3(20) % | Error range (%) ([9]; thalamus): -26 to 27% | VT Logan ([9]; thalamus, retest): 0.76(0.25) | VT Logan ([9]; thalamus, test): 0.80(0.24) | Error % mean(SD) ([9]; white matter): -4(19) % | Error range (%) ([9]; white matter): -32 to 19% | VT Logan ([9]; white matter, retest): 0.65(0.20) | VT Logan ([9]; white matter, test): 0.69(0.18) | Error % mean(SD) ([9]; whole brain): -4(16) % | Error range (%) ([9]; whole brain): -29 to 17% | VT Logan ([9]; whole brain, retest): 0.65(0.19) | VT Logan ([9]; whole brain, test): 0.69(0.17)
